From patent US20120095185A1, “PROCESS FOR CHELATING COPPER IONS USING CB-TE2A BIFUNCTIONAL CHELATE” (NORDION (CANADA) INC., priority 2010, published 2012)

What was measured:
[1] = Conversion of isomer F1 (12b) to F2 (12a) in chloroform, followed by 13C-NMR; type: physicochemical; settings: 14 days at room temperature
Source text: FIG. 7A illustrates the aliphatic region of the ^13C-NMR spectrum of the F1 isomer (12b) in CDCl3 (bottom) and the aliphatic region of the ^13C-NMR spectrum of the F2 isomer (12a) in CDCl3 (top). FIG. 7B illustrates the aliphatic region of the ^13C-NMR spectra of the F1 isomer (12b) in CDCl3 at 0 days, 2 days, 6 days, 9 days and 14 days, showing that the F1 isomer (12b) slowly converts to the F2 isomer (12a).
After 14 days at room temperature, the conversion 12b (F1) to 12a (F2) was approximately 50% complete.

[2] = Optimisation of Cu-64 radiolabeling of 13a and 13b to >95% radiochemical yield; settings: depends on CB-TE2A BFC concentration
Source text: As used herein, the terms “degree of complexation” and “percent complexation” are used interchangeably and are defined to mean the percentage of the ion that is successfully complexed with the bifunctional chelate. Here percent complexation is expressed as radiochemical yield, which is the yield of radiolabeled complex expressed as a fraction of the radioactivity originally present. The value of radiochemical yield obtained when making the ion complexes of the present reaction can be greater than 90% or greater than 95%, as measured by reverse phase chromatography (HPLC).
The conditions required to radiolabel 13a and 13b with Cu-64 in >95% radiochemical yield were optimized for pH, temperature and reaction time (Table 1). The exact same radioisotope lot, buffer solutions, and conditions were used for the reaction and the analysis of both 13a and 13b.
Cu-64 radiolabeled 13a and 13b are distinct species with different retention times by HPLC. The analysis was conducted with a Phenomenex hydrosynergy RPC18 column (4.6×150 mm) using a gradient of 98% trifluoracetic acid in water (0.01% v/v) 2% acetonitrile to 50% trifluoracetic acid in water (0.01% v/v) 50% acetonitrile over 30 min at 1 mL/min.

Row | Structure (SMILES) | Conversion 12b (F1) to 12a (F2) [1] | Reaction time [2]
1 | CCOC(=O)CN1CCCN2CCN(CCCN(C(CCc3ccc([N+](=O)[O-])cc3)C(=O)OC)CC2)CC1 (stereo not drawn) [12b, methyl 2-(11-(2-ethoxy-2-oxoethyl)-1,4,8,11-tetraazabicyclo[6.6.2]hexadecan-4-yl)-4-(4-nitrophenyl)butanoate] | approximately 50% | 
2 | O=C(O)CN1CCCN2CCN(CCCN(C(CCc3ccc([N+](=O)[O-])cc3)C(=O)O)CC2)CC1 (stereo not drawn) [13b] |  | 60 min
3 | O=C(O)CN1CCCN2CCN(CCCN(C(CCc3ccc([N+](=O)[O-])cc3)C(=O)O)CC2)CC1 (stereo not drawn) [13a] |  | 10-30 minutes depending on
